In US5684024A, “Pyrazole dimers compositions and methods for treating influenza” (priority 1996, dated 1997):

How the values were obtained:
influenza A/WSN = assay: Plaque reduction in MDCK cells, influenza A/WSN; conditions: 48 h, read-out: IC50, […], A/WSN
Description: (§1) Compounds were evaluated for antiviral activity against influenza A/WSN by plaque reduction in Madin Darby canine kidney (MDCK) cells. Duplicate monolayers of MDCK cells in 6 well plates were washed free of protein-containing media, infected with 50-100 plaque-forming units of virus (0.4 ml volume), and incubated at 37° C. for 60 min. After aspiration of the virus inoculum, a 0.6% agarose overlay (3 ml) containing Eagle minimal essential media, trypsin (8 μg/ml), and the appropriate drug dilution (final concentration of 1% DMSO) was added to the cell monolayer. Plates were incubated at 37° C. in a humidified atmosphere of 5% CO2 in air. After 48 h, monolayers were fixed with glutaraldehyde, stained with 0.1% crystal violet and the plaques were counted. The percentage of plaque inhibition relative to the infected control (no drug) plates were calculated for each drug concentration and the 50% inhibitory concentration (IC50) was determined.

[1] = target: influenza A/WSN virus transcriptase (Influenza A virus, UniProt P03427+P03430+P15659); assay: biochemical; conditions: read-out: IC50, concentration required to achieve 50% inhibition of influenza A/WSN virus transcriptase activity
influenza A/Victoria = assay: Plaque reduction in MDCK cells, influenza A/Victoria; conditions: 48 h, read-out: IC50, […], A/Victoria
Description: as §1

Structure (SMILES)	IC50 (influenza A/WSN) [nM]	IC50 [1] [nM]	IC50 (influenza A/Victoria) [nM]
CC(=O)C1=NN(c2ccc(C(=O)O)cc2C)C(=O)C1=C1C(=O)N(c2ccc(C(=O)O)cc2C)N=C1C(C)=O [Example 4, 3,3'-Bis[3-Methyl-4-(2-hydroxy-4-acetylpyrazolyl)-benzoic Acid]]	50000	200	25000
COc1cc(C(=O)O)ccc1N1N=C(C(C)=O)C(=C2C(=O)N(c3ccc(C(=O)O)cc3OC)N=C2C(C)=O)C1=O [Example 5]	–	1200	–
CC(=O)C1=NN(c2ccc(C(=O)O)c(Cl)c2)C(=O)C1=C1C(=O)N(c2ccc(C(=O)O)c(Cl)c2)N=C1C(C)=O [Example 6]	–	800	–
CC(=O)C1=NN(c2ccc(C(=O)O)cc2)C(=O)C1=C1C(=O)N(c2ccc(C(=O)O)cc2)N=C1C(C)=O [Example 7]	50000	500	30000
CC(=O)C1=NN(c2cccc(C(=O)O)c2)C(=O)C1=C1C(=O)N(c2cccc(C(=O)O)c2)N=C1C(C)=O [Example 8]	–	350	–
CC(=O)C1=NN(c2ccc(Cl)c(C(=O)O)c2)C(=O)C1=C1C(=O)N(c2ccc(Cl)c(C(=O)O)c2)N=C1C(C)=O [Example 9]	–	250	–
CC(=O)C1=NN(c2cc(C(=O)O)ccc2C)C(=O)C1=C1C(=O)N(c2cc(C(=O)O)ccc2C)N=C1C(C)=O [Example 10]	–	350	–
